Data: article PMC6687188, “Novel lactate dehydrogenase inhibitors with in vivo efficacy against Cryptosporidium parvum” (PLoS Pathogens, 2019)
Non-standard residues stand in square brackets, D forms with d. Residues, ends and D or L forms follow the SMILES beside them. ξ: configuration not given here. *: point of attachment. ξNMe2Val = CC(C)C(C(=O)*)N(C)C; NMeV = CN[CH](C(=O)O)C(C)C; NHBn = c1ccc(CN*)cc1

biological target: recombinant CpLDH protein (Cryptosporidium parvum, UniProt Q9GT92, F198L/K295E/R251K)

SMILES | MEAN CpLDH INHIBITION (%)
COc1ccc(NC(=O)C(=O)/C=C(\O)c2ccccc2)cc1 [NSC658709] | -17.00
O=C(CC(O)(C(F)(F)F)C(F)(F)Cl)CC(O)(C(F)(F)F)C(F)(F)Cl (centres unmarked) [NSC659174] | -13.23
CN=c1sc2c(n1C)C(=O)c1ccccc1C2=O [NSC659501] | -27.66
COCCOC1=C(Cl)C(=O)c2c(O)ccc(O)c2C1=O [NSC659997] | -9.35
Cl.O=C1C=CC(=O)c2c(O)c(N3CCN(CCOCCO)CC3)c(Br)c(O)c21 [NSC659999] | -30.12
Cc1nn(-c2ccccc2)c2c1CC(=O)Nc1ccccc1-2 [NSC662553] | -64.36
C=C(Cl)C(Cl)(CBr)CCC(Br)C(C)(C)Cl (centres unmarked) [NSC662825] | -7.35
COc1ccc(NC2=NCCO2)c2c1CCCC2 [NSC663996] | -51.63
O=C1C(C(O)(C(F)(F)F)C(F)(F)F)CCC1C(O)(C(F)(F)F)C(F)(F)F (centres unmarked) [NSC664181] | -5.59
CN(NC1=NCCO1)c1ccc2ccccc2c1 [NSC664286] | -26.92
CC(Cc1ccccc1)NC1=NCCO1 (centres unmarked) [NSC664298] | -116.71
CC(=O)C(N1CCCCC1)C(O)(C(F)(F)F)C(F)(F)F (centres unmarked) [NSC664327] | -14.71
O/N=C(/CC(O)(C(F)(F)F)C(F)(F)F)c1cccc(Cl)c1 [NSC664329] | -28.29
CC1=CC(=O)c2cccc(NC3=NCCO3)c21 [NSC664331] | -15.78
[N-]=[N+]=NC1=NNC2(C(=O)N1)c1ccccc1-c1ccccc12 [NSC666168] | -17.65
CCCCCCC1CC(=O)C1(Cl)Cl (centres unmarked) [NSC666526] | -2.48

SMILES | MEAN CpLDH INHIBITION (%)
CCOC(=O)Cc1cc(=O)oc2cc(O)ccc12 [NSC667235] | -25.51
CN(C)c1cccc(/C=C(\C#N)c2ccccc2)c1 [NSC667251] | -17.96
S=C1Nc2cnc3ccccc3c2SC1c1ccccc1 (centres unmarked) [NSC667467] | -21.66
C=C1CC(Cn2cc(Br)c(=O)[nH]c2=O)(c2ccc(-c3ccccc3)cc2)OC1=O (centres unmarked) [NSC668260] | -9.25
C=C1CC(COc2cc(=O)oc3ccccc23)(c2ccccc2)OC1=O (centres unmarked) [NSC668270] | -4.80
CC(C)C(NC(=O)C(C(C)C)N(C)C)C(=O)N(C)C(C(=O)N1CCCC1C(=O)N1CCCC1C(=O)NCc1ccccc1)C(C)C.Cl (centres unmarked) [NSC669356] (ξNMe2Val-V[NMeV]PP-NHBn; configuration not given here) | -120.43
O=C(ON=C1c2ccccc2C(Br)C(Br)c2ccccc21)c1ccccc1 (centres unmarked) [NSC670140] | -63.78
CN(C)CCOC1(Cc2ccc(Cl)cc2Cl)CCC(C(C)(C)C)CC1.Cl (centres unmarked) [NSC670224] | -73.95
Cc1ccc(CC2(OCCN(C)C)CCC(C(C)(C)C)CC2)cc1.O=C(O)/C=C/C(=O)O (centres unmarked) [NSC670225] | -54.38
CN(C)CCOC1(Cc2ccc(F)cc2)CCC(C(C)(C)C)CC1.O=C(O)/C=C/C(=O)O (centres unmarked) [NSC670226] | -20.67
Cc1ccc(CC2(OCCN(C)C)CCC(C(C)(C)C)CC2)cc1.O=C(O)/C=C/C(=O)O (centres unmarked) [NSC670229] | -52.64
CC(=O)c1sc2c(c1OC(=O)c1ccc(Cl)cc1Cl)c(=O)n(-c1ccccc1)c(=S)n2-c1ccccc1 [NSC671136] | -17.97
COc1ccc(N=C2C(=Nc3ccc(OC)cc3)N(c3ccc(N(C)C)cc3)C(=S)N2c2ccc(OC)cc2)cc1 [NSC671394] | -158.34
O=[N+]([O-])c1ccc2oc(=Nc3ccccc3)c(Nc3ccccc3)nc2c1 [NSC671424] | -1.46
N[C@@H](Cc1ccc2oc3cc(=O)c4ccccc4c-3nc2c1)C(=O)O [NSC672425] | -0.60
CCCCCCCCCCCCCCCC[N+](C)(C)CCl.[Cl-] [NSC672904] | -0.06
